Experimental data reported in patent publication US20240238284A1, “COMPOUNDS AND COMPOSITIONS FOR THE TREATMENT OF MPNST” (Novartis AG, priority 2021, published 2024).

Experiments:
[1] = system: Rb-positive cell lines derived from diverse cancer types; assay: Rb phosphorylation and cell cycle progression in Rb-positive cell lines; type: cell-based; conditions: more than 40 Rb-positive cell lines
[2] = system: ten native NF1-MPNST cell lines; assay: cell number by trypan blue exclusion, native NF1-MPNST cell lines; type: cell-based; conditions: TNO155 0.3, 1, 3 μM; ribociclib 1, 3 μM; about 1 week
Source text: (§1) Cell numbers were counted using trypan blue exclusion assay (Sigma-Aldrich) and normalized to the DMSO control.

[3] = system: trametinib resistant lines (ST8814Res and NF90.8Res); assay: cell number by trypan blue exclusion, trametinib resistant lines; type: cell-based; conditions: TNO155 0.3, 1, 3 μM, ribociclib 1, 3 μM, about 1 week
Source text: as §1

NF1-MPNST PDX models = assay: tumor growth in NF1-MPNST patient-derived xenograft (PDX) models in NRG mice; type: in vivo; conditions: oral gavage, TNO155 7.5 mg/kg, ribociclib 75 mg/kg once daily, up to 42 days
Protocol: The PDX models of Example 1 were developed and characterized according to Dehrner, et al., JCI Insight 2021: 6(6):e146351 and Pollard, K., et al., Sci Data, 2020; 7:184). NRG (NOD-Rag1^null IL 2rg^null, NOD rag gamma) mice are used for all experiments.
Tumor response, survival and toxicity data were collected and analyzed. To form tumors, 1-2 million NF1-MPNST PDX-derived cells (JH-2-031, JH-2-079, JH-2-002, WU-225, WU-386, or WU-545)) in 50% Matrigel (BD Biosciences) were injected subcutaneously in 4- to 6-week-old female NRG mice. The tumors were measured and mice weighed twice weekly once tumors began to form. Drugs were given beginning when tumors reached 150-200 mm^3. Mice were treated with vehicle, single agent (A or B or C) or combination (A+B or B+C) for up to 42 days. Each group consisted of three to five mice. Tumor volume was calculated using the formula: V=L×W2 (π/6), where L=longest diameter and W=width.

p-ERK in WU-386 tumors = assay: pharmacodynamic p-ERK levels in WU-386 PDX tumors; type: in vivo, mice; conditions: WU-386 tumors collected 4-hour post end-point treatment (4 weeks)

Row | Structure (SMILES) | Retinoblastoma protein (Rb) phosphorylation and G1 to S phase cell cycle progression [1] | cell number response normalized to DMSO control [2] | cell number response normalized to DMSO control [3] | anti-tumor activity / tumor growth inhibition in PDX models (NF1-MPNST PDX models) | p-ERK levels in tumors (p-ERK in WU-386 tumors)
1 | CN(C)C(=O)c1cc2cnc(Nc3ccc(N4CCNCC4)cn3)nc2n1C1CCCC1 [Ribociclib, 7-cyclopentyl-N,N-dimethyl-2-((5-(piperazin-1-yl)pyridin-2-yl)amino)-7H-pyrrolo[2,3-d]pyrimidine-6-carboxamide] | inhibited Retinoblastoma protein (Rb) phosphorylation and interfered with G1 to S phase cell cycle progression | – | – | – | –
2 | C[C@@H]1OCC2(CCN(c3cnc(Sc4ccnc(N)c4Cl)c(N)n3)CC2)[C@@H]1N [TNO155, (3S,4S)-8-(6-amino-5-((2-amino-3-chloropyridin-4-yl)thio)pyrazin-2-yl)-3-methyl-2-oxa-8-azaspiro[4.5]decan-4-amine] | – | partial sensitivity | limited activity | substantial anti-tumor activity as a single agent | decrease in p-ERK levels
